According to ChEMBL document CHEMBL4842392, “Targeting KRAS Mutant Protein Inhibitor for Potential Treatment in Cancer” (ACS Med Chem Lett, 2021):
Where “and” joins values, the source holds several entries; their conditions need not be identical. Identical values can stand only once.

Assays:
GTPase KRas [1] = biological target: T1, GTPase KRas (Homo sapiens, UniProt P01116, G12C); test: Inhibition of GDP-loaded His-tagged KRAS G12C mutant (2 to 182 residues) (unknown origin) assessed as inhibition of SOS1-catalyzed nucleotide exchange preincubated for 1 hr followed by SOS1 addition measured after 1 hr by TR-FRET assay
NCI-H358 = test: Antiproliferative activity against human NCI-H358 cells assessed as inhibition of cell proliferation incubated for 6 days by CCK8 assay; assay type: functional, cell-based
GTPase KRas [2] = biological target: T1, GTPase KRas; test: Inhibition of KRAS G12C mutant in human NCI-H358 cells assessed as reduction in ERK phosphorylation incubated for 2 hrs by HTRF assay; assay type: cell-based
[3] = Oral bioavailability in Beagle dog at 10 mg/kg measured up to 24 hrs by LC-MS analysis; assay type: ADME, organism-based, Canis lupus familiaris; conditions: in vivo

SMILES | IC50 (GTPase KRas [1]) | IC50 (NCI-H358; Homo sapiens, NCI-H358, 144 h) [nM] | IC50 (GTPase KRas [2]) | bioavailability ([3]; beagle) [%] | F ([3]; 10 mg/kg, 24 h) | IC50 (NCI-H358; nci-h358) [nM]
C=CC(=O)N1CCN(c2c(C#N)c(=O)n(-c3c(C)ccnc3C(C)C)c3nc(-c4c(N)c(Cl)cc(Cl)c4F)c(Cl)cc23)CC1CC#N (centres undefined) | 5.19 nM | 35.6 | 14.9 nM |  |  | 
C=CC(=O)N1CCN(c2c(C#N)c(=O)n(-c3c(C)ccnc3C(C)C)c3nc(-c4c(N)c(Cl)cc(Cl)c4F)c(Cl)cc23)C[C@@H]1CC#N | 6.66 nM |  | 12.3 nM |  |  | 
C=CC(=O)N1CCN(c2c(C#N)c(=O)n(-c3c(C(C)C)ncnc3C(C)C)c3nc(-c4c(N)cccc4F)c(Cl)cc23)CC1 |  |  | 20.1 nM |  |  | 
C=CC(=O)N1CCN(c2c(C#N)c(=O)n(-c3c(C)ccnc3C(C)C)c3nc(-c4ccccc4F)c(Cl)cc23)CC1 | 4.4 nM | 52.1 | 29.9 nM |  |  | 
C=CC(=O)N1CCN(c2c(C#N)c(=O)n(-c3c(C)ccnc3C(C)C)c3nc(-c4c(N)c(Cl)cc(Cl)c4F)c(Cl)cc23)C[C@H]1C | 2.54 nM | 25.4 | 28.8 nM | 70.3 |  | 
C=CC(=O)N1[C@H](C)CN(c2c(C#N)c(=O)n(-c3c(C)ccnc3C(C)C)c3nc(-c4c(N)c(Cl)cc(Cl)c4F)c(Cl)cc23)C[C@@H]1C | 2.83 nM | 17.5 | 38.1 nM |  |  | 
C=CC(=O)N1CCN(c2c(C#N)c(=O)n(-c3c(C(C)C)ncnc3C(C)C)c3nc(-c4c(N)c(Cl)cc(Cl)c4F)c(Cl)cc23)CC1 | 4.74 nM | 32 | 18.5 nM |  |  | 
C=CC(=O)N1CCN(c2c(C#N)c(=O)n(-c3c(C)ccnc3C(C)C)c3nc(-c4c(N)c(Cl)cc(Cl)c4F)c(Cl)cc23)CC1 | 1.95 nM and 1.54 nM | 27.6 | 10.4 nM and 11.7 nM |  | 98.5% and 63.1% | 14.5
